{
  "source": "paper PMC5355235",
  "about": "“FLT3 activating mutations display differential sensitivity to multiple tyrosine kinase inhibitors” (Oncotarget, 2017)",
  "type_in_all_cases": "cell-based",
  "key": {"[1]": {"test_system": "BaF3 FLT3 D593D mutant cells", "experiment": "MTT growth inhibition assay, BaF3 FLT3 D593D cells", "details": "Mus musculus, no IL-3, 48 h, read-out: Proliferation IC50", "experimental": "(§1) Figure 1 Growth of AL mutants in the presence of FLT3 TKI The BaF3 AL mutants were grown in the absence of IL-3 and analyzed by treatment in increasing concentrations of FLT3 TKI for 48 hours, after which growth inhibition was assessed using the MTT assay. Means are representative of at least three independent experiments.\n(§2) The cells were grown in the absence of IL3 and analyzed by treatment in increasing concentrations of FLT3 TKI for 48 hours, after which growth inhibition was assessed using the MTT assay. Each experiment was performed at least three times and representative results are shown.\n(§3) Based on Trypan Blue exclusion, 2 × 10^4 viable cells were seeded in quadruplicate in a 96-well microtiter plate in the presence or absence of inhibitor for 48 h. The effect of drug activity on cell viability was measured using the 3-(4,5-Dimethylthiazol-2-yl)-2,5-diphenyltetrazolium bromide (MTT) assay according to the manufacturer's instructions (Roche Applied Science, Indianapolis, IN, USA). Following treatment, cells were incubated for 4 h in MTT followed by dissolution in solubilization buffer overnight. Absorbance was measured at 570 nm on a Bio-Rad plate reader (Hercules, CA, USA). […] Results shown are presented as means and are representative of at least three independent experiments."}, "BaF3/ITD cells": {"test_system": "BaF3/ITD cells", "experiment": "MTT growth inhibition assay, BaF3 FLT3-ITD cells", "details": "Mus musculus, no IL-3, 48 h, read-out: Proliferation IC50", "experimental": "as §1, §2, §3"}, "[2]": {"test_system": "BaF3 FLT3 I836T mutant cells", "experiment": "MTT growth inhibition assay, BaF3 FLT3 I836T cells", "details": "Mus musculus, no IL-3, 48 h, read-out: Proliferation IC50", "experimental": "as §1, §2, §3"}, "[3]": {"test_system": "BaF3 FLT3 D835Y mutant cells", "experiment": "MTT growth inhibition assay, BaF3 FLT3 D835Y cells", "details": "Mus musculus, no IL-3, 48 h, read-out: Proliferation IC50", "experimental": "as §1, §2, §3"}, "[4]": {"test_system": "BaF3 FLT3 I836S mutant cells", "experiment": "MTT growth inhibition assay, BaF3 FLT3 I836S cells", "details": "Mus musculus, read-out: Proliferation IC50", "experimental": "as §1, §2, §3"}, "[5]": {"test_system": "BaF3 FLT3 D835N mutant cells", "experiment": "MTT growth inhibition assay, BaF3 FLT3 D835N cells", "details": "Mus musculus, no IL-3, 48 h, read-out: Proliferation IC50", "experimental": "as §1, §2, §3"}, "[6]": {"test_system": "BaF3 FLT3 I836L+D mutant cells", "experiment": "MTT growth inhibition assay, BaF3 FLT3 I836L+D cells", "details": "Mus musculus, no IL-3, 48 h, read-out: Proliferation IC50", "experimental": "as §1, §2, §3"}, "[7]": {"test_system": "BaF3 FLT3 840G+S mutant cells", "experiment": "MTT growth inhibition assay, BaF3 FLT3 840G+S cells", "details": "Mus musculus, no IL-3, 48 h, read-out: Proliferation IC50", "experimental": "as §1, §2, §3"}, "[8]": {"test_system": "BaF3 FLT3 D835G mutant cells", "experiment": "MTT growth inhibition assay, BaF3 FLT3 D835G cells", "details": "Mus musculus, no IL-3, 48 h, read-out: Proliferation IC50", "experimental": "as §1, §2, §3"}, "[9]": {"test_system": "BaF3 FLT3 D835A mutant cells", "experiment": "MTT growth inhibition assay, BaF3 FLT3 D835A cells", "details": "Mus musculus, read-out: Proliferation IC50", "experimental": "as §1, §2, §3"}, "[10]": {"test_system": "BaF3 FLT3 D835L+K mutant cells", "experiment": "MTT growth inhibition assay, BaF3 FLT3 D835L+K cells", "details": "Mus musculus, no IL-3, 48 h, read-out: Proliferation IC50", "experimental": "as §1, §2, §3"}, "FLT3 D835L+K": {"test_system": "FLT3 D835L+K", "experiment": "FLT3 autophosphorylation, immunoprecipitation/Western blot, D835L+K", "details": "D835L+K mutant, concentrations of 200 nM, 1 h", "experimental": "Activated FLT3 expression was measured by performing immunoprecipitation, SDS-PAGE and Western blotting as previously described. Specifically, 10^7 cells were washed in medium and treated with inhibitor for 1 h followed by stimulation with 25 ng/ml of FLT3 ligand for 15 minutes where indicated. Cells were washed twice with ice-cold PBS and lysed in 300 µl of NP-40 lysis buffer (150 mM NaCl, 20 mM TrisHCl (pH7.4), 10% glycerol, 1% NP-40, 10 mM EDTA, 100 mM NaF) with 2 mM Na3VO4 and protease inhibitors (Complete Tablets, Roche, Mannheim, Germany) at 4°C for 30 m. Cell lysate was harvested by centrifugation at 13,000 × g for 30 m at 4°C. FLT3 S-18 antibody was incubated with 500 µg lysate overnight at 4°C followed by immunoprecipitation with protein A-agarose beads for 2 h. Beads were washed once in Tris buffered saline with 1% Tween-20 (TBST) and twice in TBS. Samples were boiled in sodium dodecyl sulfate (SDS) sample buffer prior to separating in a 8% SDS-polyacrylamide gel (SDS-PAGE). Proteins were transferred to a polyvinyl diflouride (PVDF) membrane (Millipore, Bedford, MA, USA) and detected by 4G10 phosphotyrosine antibody and anti-FLT3 S-18 antibody. FLT3 was visualized using the Odyssey Infra Red Imaging System from Li-Cor (Lincoln, NE, USA) using AlexaFluor 680 goat anti-mouse and AlexaFluor 800 goat anti-rabbit antibodies. […]"}, "[11]": {"details": "BaF3 FLT3 I836S, no IL-3, 48 h, MTT"}, "[12]": {"details": "BaF3 FLT3 D835A, no IL-3, 48 h, MTT"}},
  "note": "Where two headings read alike, the source gives them in different places.",
  "data": [
    {"smiles": "Cc1cc2ncc(-c3ccccc3)nc2cc1C", "note": "[AG1295]", "values": [
      {"measurement": "IC50", "setting": "[1]", "value": "> 3000", "unit": "nM"},
      {"measurement": "IC50", "setting": "BaF3/ITD cells", "value": 298, "unit": "nM"},
      {"measurement": "IC50", "setting": "[2]", "value": "> 3000", "unit": "nM"},
      {"measurement": "IC50", "setting": "[3]", "value": "> 3000", "unit": "nM"},
      {"measurement": "IC50", "setting": "[4]; [11]", "value": "> 3000", "unit": "nM"},
      {"measurement": "IC50", "setting": "[5]", "value": 411, "unit": "nM"},
      {"measurement": "IC50", "setting": "[6]", "value": "> 3000", "unit": "nM"},
      {"measurement": "IC50", "setting": "[7]", "value": 500, "unit": "nM"},
      {"measurement": "IC50", "setting": "[8]", "value": 423, "unit": "nM"},
      {"measurement": "IC50", "setting": "[9]; [12]", "value": 1970, "unit": "nM"},
      {"measurement": "IC50", "setting": "[10]", "value": "> 3000", "unit": "nM"}
    ]},
    {"smiles": "CC1(COc2ccc3c(c2)ncn3-c2ccc3cccc(N4CCC(N)CC4)c3n2)COC1", "note": "[Crenolanib]", "values": [
      {"measurement": "Inhibition of FLT3 phosphorylation", "setting": "FLT3 D835L+K", "value": "significant autophosphorylation still observable"},
      {"measurement": "IC50", "setting": "[1]", "value": 70, "unit": "nM"},
      {"measurement": "IC50", "setting": "BaF3/ITD cells", "value": 57, "unit": "nM"},
      {"measurement": "IC50", "setting": "[2]", "value": "> 1000", "unit": "nM"},
      {"measurement": "IC50", "setting": "[3]", "value": 58, "unit": "nM"},
      {"measurement": "IC50", "setting": "[4]; [11]", "value": "> 1000", "unit": "nM"},
      {"measurement": "IC50", "setting": "[5]", "value": 80, "unit": "nM"},
      {"measurement": "IC50", "setting": "[6]", "value": 50, "unit": "nM"},
      {"measurement": "IC50", "setting": "[7]", "value": 83, "unit": "nM"},
      {"measurement": "IC50", "setting": "[8]", "value": 110, "unit": "nM"},
      {"measurement": "IC50", "setting": "[9]; [12]", "value": 78.1, "unit": "nM"},
      {"measurement": "IC50", "setting": "[10]", "value": "> 1000", "unit": "nM"}
    ]},
    {"smiles": "Cc1ccc(C(=O)Nc2ccc(CN3CCN(C)CC3)c(C(F)(F)F)c2)cc1C#Cc1cnc2cccnn12", "note": "[Ponatinib]", "values": [
      {"measurement": "Inhibition of FLT3 phosphorylation", "setting": "FLT3 D835L+K", "value": "significant autophosphorylation still observable"},
      {"measurement": "IC50", "setting": "[1]", "value": 10.7, "unit": "nM"},
      {"measurement": "IC50", "setting": "BaF3/ITD cells", "value": "< 1", "unit": "nM"},
      {"measurement": "IC50", "setting": "[2]", "value": "> 1000", "unit": "nM"},
      {"measurement": "IC50", "setting": "[3]", "value": 92, "unit": "nM"},
      {"measurement": "IC50", "setting": "[4]; BaF3, 48 h", "value": "> 1000", "unit": "nM"},
      {"measurement": "IC50", "setting": "[5]", "value": "< 1", "unit": "nM"},
      {"measurement": "IC50", "setting": "[6]", "value": "< 1", "unit": "nM"},
      {"measurement": "IC50", "setting": "[7]", "value": "< 1", "unit": "nM"},
      {"measurement": "IC50", "setting": "[8]", "value": "< 1", "unit": "nM"},
      {"measurement": "IC50", "setting": "[9]; BaF3, 48 h", "value": 148, "unit": "nM"},
      {"measurement": "IC50", "setting": "[10]", "value": "> 1000", "unit": "nM"}
    ]}
  ]
}
